Reference: publication PMC8316002, “Inhibition of Escherichia coli Lipoprotein Diacylglyceryl Transferase Is Insensitive to Resistance Caused by Deletion of Braun’s Lipoprotein” (Journal of Bacteriology, 2021)
Values after ≈ are worked out from the molar mass of the structure shown. Read-outs that look alike come from different tables or passages of the source. Where a SMILES comes first, the peptide text is derived from it. Bridges are numbered along the chain shown (N, C = ends). [ ]: non-standard residue; d: D form. Bip = N[C@@H](Cc1ccc(-c2ccccc2)cc1)C(=O)O; NMeF = CN[C@@H](Cc1ccccc1)C(=O)O

Assays:
CFT073 + EDTA = assay: microbe, parasite or virus in culture; format: cell-based, E. coli; details: average of at least four independent experiments in duplicates
Procedure: (§1) Unless stated otherwise, E. coli cells were grown in Luria-Bertani (LB) medium (0.5% yeast extract, 1% tryptone, 0.5% NaCl) at 37°C. Where indicated, kanamycin (Kan) was added to culture media at a 50-μg/ml final concentration. MIC assays were performed based on Clinical and Laboratory Standards Institute (CLSI) guidelines. For in vitro growth curves, overnight cultures of WT CFT073, CFT073 Δlgt, and CFT073 Δlgt complemented with lgt from E. coli (lgt^Ec) or P. aeruginosa (lgt^Pa) were grown to mid-exponential phase (optical density at 600 nm [OD600] of 0.6) and then diluted to an OD600 of 0.1 to initiate growth curves. At various times, culture aliquots were diluted and plated in dilutions on LB+Kan agar, and CFU were enumerated in duplicates. Growth of MG1655 inducible deletion strains was measured by culturing in the presence of 2-fold dilutions of arabinose (starting arabinose concentrations for CFT073 and MG1655 inducible deletion strains were 4% and 0.8%, respectively). While […] was sufficient for WT growth of MG1655 Δlgt, 4% arabinose was used for CFT073 Δlgt based on comparing its growth to that of WT CFT073 as measured by CFU. OD600 growth measurements were performed using an EnVision 2101 multilabel reader plate reader (PerkinElmer) linked with Echo liquid handler (Labcyte). For time-kill experiments, bacteria were harvested in mid-exponential phase and treated with 12.5 μM G2824, 3.2 μM globomycin, and 1.6 μM vancomycin. CFU were enumerated at various times posttreatment. Bacterial culture medium containing 2% arabinose was used to induce lpp or lppΔK expression from pBad24 plasmids. Bacterial viability at different time points during the treatment was measured by enumerating CFU. Serum killing assays were carried out as previously described ([17]).

CFT073 imp4213 Δlpp [1] = assay: microbe, parasite or virus in culture; format: cell-based, E. coli
Procedure: as §1

CFT073 imp4213 [2] = assay: microbe, parasite or virus in culture; format: cell-based, E. coli; details: average of at least four independent experiments in duplicates
Procedure: as §1

CFT073 Δlpp + EDTA = assay: microbe, parasite or virus in culture; format: cell-based, E. coli
Procedure: as §1

CFT073 Δlpp = assay: microbe, parasite or virus in culture; format: cell-based, E. coli
Procedure: as §1

CFT073 = assay: microbe, parasite or virus in culture; format: cell-based, E. coli; details: average of at least four independent experiments in duplicates
Procedure: as §1

MG1655 + EDTA = assay: microbe, parasite or virus in culture; format: cell-based, E. coli; details: average of at least four independent experiments in duplicates
Procedure: as §1

MG1655 Δlpp + EDTA = assay: microbe, parasite or virus in culture; format: cell-based, E. coli
Procedure: as §1

MG1655 Δlpp = assay: microbe, parasite or virus in culture; format: cell-based, E. coli
Procedure: as §1

MG1655 = assay: microbe, parasite or virus in culture; format: cell-based, E. coli; details: average of at least four independent experiments in duplicates
Procedure: as §1

CFT073 imp4213 Δlpp [3] = assay: Time-kill, CFT073 imp4213 versus CFT073 imp4213 Δlpp; format: cell-based, E. coli; details: 12.5 μM G2824, 3.2 μM globomycin or 1.6 μM vancomycin, CFU, two independent experiments in triplicates
Procedure: To compare the rate of bactericidal killing of G2824 with that of globomycin, we treated CFT073 imp4213 and CFT073 imp4213 Δlpp cells with G2824 and globomycin at 2× MIC of the respective inhibitors against CFT073 imp4213 and enumerated viable CFU counts.
Unless stated otherwise, E. coli cells were grown in Luria-Bertani (LB) medium (0.5% yeast extract, 1% tryptone, 0.5% NaCl) at 37°C. Where indicated, kanamycin (Kan) was added to culture media at a 50-μg/ml final concentration. MIC assays were performed based on Clinical and Laboratory Standards Institute (CLSI) guidelines. […] Growth of MG1655 inducible deletion strains was measured by culturing in the presence of 2-fold dilutions of arabinose (starting arabinose concentrations for CFT073 and MG1655 inducible deletion strains were 4% and 0.8%, respectively). While 2% arabinose was sufficient for WT growth of MG1655 Δlgt, 4% arabinose was used for CFT073 Δlgt based on comparing its growth to that of WT CFT073 as measured by CFU. OD600 growth measurements were performed using an EnVision 2101 multilabel reader plate reader (PerkinElmer) linked with Echo liquid handler (Labcyte). […] Bacterial viability at different time points during the treatment was measured by enumerating CFU. […]

CFT073 imp4213 [4] = assay: Western blot of Lpp forms; format: cell-based, E. coli; details: 0.5× MIC, 30 min
Procedure: Bacterial cell samples normalized for equivalent OD600 and resuspended in BugBuster lysis buffer (Fischer Scientific) with the addition of sample buffer (LI-COR), and proteins were separated by SDS-PAGE using 16% Tricine protein gels or NuPAGE 4% to 20% bis-Tris gels (Thermo Fisher Scientific), transferred to nitrocellulose membranes using the iBlot 2 dry blotting system (Invitrogen), and blocked using LI-COR blocking buffer for 30 min. Unless stated otherwise, loading buffer with reducing agents was added and samples were not boiled prior to SDS-PAGE. For the sucrose gradient centrifugation, samples were boiled prior to running the SDS-PAGE. Primary antibodies were used at a final concentration of 1 μg/ml with some exceptions: rabbit anti-Lpp polyclonal antibody (0.1 μg/ml), murine anti-Pal 6D7 antibody (0.5 μg/ml), rabbit anti-GroEL antibody (1:10,000 final dilution), and rabbit anti-OmpA antibody (1:50,000 final dilution). The secondary antibodies were all obtained from LI-COR and used as per manufacturer’s instructions. Images were collected using the Odyssey CLx imaging system (LI-COR) and analyzed by Image Studio Lite.

LspA = LspA inhibitor globomycin; cited from earlier work
Text: Using a combination of biochemical and genetic strategies, we believe the Lgt inhibitor G2824 identified in this study inhibits bacterial cell growth through inhibition of the diacylglyceryl transferase activity of Lgt. First, G2824 was identified using a specific Lgt binding assay and confirmed to inhibit Lgt enzymatic function in vitro. Second, the results generated from pharmacologic inhibition of Lgt by G2824 in both CFT073 and MG1655 E. coli strains are highly consistent with the genetic depletion of Lgt, strongly arguing against off-target effects as a main cause of G2824 bactericidal ac ...

E. coli Lgt = biological target: T1, E. coli Lgt (Escherichia coli, UniProt P60955); assay: biochemical; details: 3 nM Lgt-DDM, 50 μM phosphatidylglycerol, 12.5 μM Pal-IAAC, 50 mM Tris (pH 8), 0.02% DDM, 60 min at RT; luminescence; at least two independent experiments in triplicates; read-out: IC50, inhibition of Lgt biochemical activity
T1 construct: DNA encoding full-length E. coli Lgt fused to a C-terminal Flag tag; Flag (C); made in house; host or cells: E. coli Rosetta 2(DE3) Gold cells (Agilent)

[5] = Escherichia coli, read-out: MIC
[6] = CFT073 imp4213 Δlpp, average of at least four independent experiments in duplicates
[7] = CFT073 Δlpp + EDTA, average of at least four independent experiments in duplicates
[8] = CFT073 Δlpp, average of at least four independent experiments in duplicates
[9] = MG1655 Δlpp + EDTA, average of at least four independent experiments in duplicates
[10] = MG1655 Δlpp, average of at least four independent experiments in duplicates

T1 sequence (P60955 whole entry, the tested form may be a part): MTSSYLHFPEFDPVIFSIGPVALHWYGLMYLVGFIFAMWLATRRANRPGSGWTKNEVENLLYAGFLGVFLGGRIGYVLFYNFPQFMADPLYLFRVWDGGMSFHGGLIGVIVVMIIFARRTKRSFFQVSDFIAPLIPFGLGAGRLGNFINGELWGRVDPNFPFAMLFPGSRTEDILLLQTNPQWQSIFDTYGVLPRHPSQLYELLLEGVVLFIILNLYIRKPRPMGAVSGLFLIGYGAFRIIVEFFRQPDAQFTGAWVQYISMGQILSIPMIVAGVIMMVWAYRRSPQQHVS

Compound | effect of lpp deletion on bactericidal killing (CFT073 imp4213 Δlpp [3]) | MIC (CFT073 + EDTA) | MIC (CFT073 imp4213 Δlpp [1]; [6]) | MIC (CFT073 imp4213 [2]) | MIC (CFT073 Δlpp + EDTA; [7]) | MIC (CFT073 Δlpp; [8]) | MIC (CFT073; read-out: MIC) | MIC (MG1655 + EDTA) | MIC (MG1655 Δlpp + EDTA; [9]) | MIC (MG1655 Δlpp; [10]) | MIC (MG1655; read-out: MIC) | IC50 (E. coli Lgt) | MIC (CFT073) | MIC (MG1655) | also measured
CN[C@H](CC(C)C)C(=O)N[C@H]1C(=O)N[C@@H](CC(N)=O)C(=O)N[C@H]2C(=O)N[C@H]3C(=O)N[C@H](C(=O)N[C@H](C(=O)O)c4cc(O)cc(O)c4-c4cc3ccc4O)[C@H](O)c3ccc(c(Cl)c3)Oc3cc2cc(c3O[C@@H]2O[C@H](CO)[C@@H](O)[C@H](O)[C@H]2O[C@H]2C[C@](C)(N)[C@H](O)[C@H](C)O2)Oc2ccc(cc2Cl)[C@H]1O [Vancomycin] | equivalent killing of CFT073 imp4213 and CFT073 imp4213 Δlpp at 5 h posttreatment |  |  |  |  |  |  |  |  |  |  |  |  |  | MIC (CFT073 + EDTA; Escherichia coli): 0.8 µM (≈ 1.16 µg/mL); MIC (CFT073 imp4213 Δlpp [1]; Escherichia coli): 0.7 µM (≈ 1.01 µg/mL); MIC (CFT073 imp4213 [2]; Escherichia coli): 0.6 µM (≈ 0.87 µg/mL); MIC (CFT073 Δlpp + EDTA; Escherichia coli): 0.8 µM (≈ 1.16 µg/mL); MIC (CFT073 Δlpp; Escherichia coli): > 100 µM; MIC (CFT073; [5]): > 100 µM; MIC (MG1655 + EDTA; Escherichia coli): 3.1 µM (≈ 4.49 µg/mL); MIC (MG1655 Δlpp + EDTA; Escherichia coli, MG1655): 0.8 µM (≈ 1.16 µg/mL); MIC (MG1655 Δlpp; Escherichia coli, MG1655): > 100 µM; MIC (MG1655; [5]): > 100 µM
CCCCCC[C@H]1OC(=O)CNC(=O)[C@H]([C@H](C)O)NC(=O)[C@H](CO)NC(=O)[C@H]([C@H](C)CC)NC(=O)[C@H](CC(C)C)N(C)C(=O)[C@@H]1C [Globomycin] | lost in the absence of lpp | 1.1 µM (≈ 0.721 µg/mL) | 11.5 µM (≈ 7.54 µg/mL) | 0.5 µM (≈ 0.328 µg/mL) | 4.7 µM | >100 µM | 29.2 µM (≈ 19.2 µg/mL) | 0.8 µM (≈ 0.525 µg/mL) | 12.5 µM | 50 µM (≈ 32.8 µg/mL) | 25 µM (≈ 16.4 µg/mL) |  |  |  | effect of lpp deletion on growth inhibition, CFT073, in words (CFT073 Δlpp; CFT073 Δlpp versus WT): resistant; effect of lpp deletion on growth inhibition, MG1655, in words (MG1655 Δlpp; MG1655 Δlpp versus WT): resistant; accumulation of Lpp forms (CFT073 imp4213 [4]): accumulation of DGPLP and other PGN-linked Lpp forms; on-target resistance mutations (LspA): no on-target resistance mutations have ever been identified
CN1C(=O)[C@H](Cc2ccc(-c3ccccc3)cc2)NC(=O)CNC(=O)[C@H](CC(=O)O)NC(=O)[C@@H](Cc2ccccc2)NC(=O)CSC[C@@H](C(=O)NCC(=O)N[C@@H](CCCCN)C(=O)N[C@@H](CCCCN)C(N)=O)NC(=O)[C@H](CCCNC(=N)N)NC(=O)[C@H](CO)NC(=O)[C@H](Cc2ccc(-c3ccccc3)cc2)NC(=O)[C@@H]1Cc1ccccc1 [G2824] ({CH2CO}-[dF]DG[Bip][NMeF][Bip]SRCGKK-NH2; thioether N-9) |  | 3.1 µM (≈ 5.1 µg/mL) | 8.9 µM (≈ 14.6 µg/mL) | 8.4 µM (≈ 13.8 µg/mL) | 2.3 µM | 62.5 µM (≈ 103 µg/mL) | 92 µM (≈ 151 µg/mL) | 3.1 µM (≈ 5.1 µg/mL) | 3.1 µM | 62.5 µM (≈ 103 µg/mL) | 93.8 µM (≈ 154 µg/mL) | 180 nM | ~100 µM (≈ 164 µg/mL) | ~100 µM (≈ 164 µg/mL) | 
CN1C(=O)[C@H](Cc2ccc(-c3ccccc3)cc2)NC(=O)CNC(=O)[C@H](CCCNC(=N)N)NC(=O)[C@@H](Cc2ccccc2)NC(=O)CSC[C@@H](C(=O)NCC(N)=O)NC(=O)[C@H](CCCNC(=N)N)NC(=O)[C@H](CO)NC(=O)[C@H](Cc2ccc(-c3ccccc3)cc2)NC(=O)[C@@H]1Cc1ccccc1 [G9066] ({CH2CO}-[dF]RG[Bip][NMeF][Bip]SRCG-NH2; thioether N-9) |  | 3.1 µM (≈ 4.43 µg/mL) | 6.8 µM (≈ 9.72 µg/mL) | 5.7 µM (≈ 8.14 µg/mL) | 1.6 µM | 31.3 µM (≈ 44.7 µg/mL) |  | 3.1 µM (≈ 4.43 µg/mL) | 3.1 µM | 31.3 µM (≈ 44.7 µg/mL) | >100 µM | 240 nM | ~100 µM (≈ 143 µg/mL) | ~100 µM (≈ 143 µg/mL) | 
